IC50 data for six compounds are collected here from ChEMBL document CHEMBL1649448, “Atorvastatin is a promising partner for antimalarial drugs in treatment of Plasmodium falciparum malaria” (Antimicrob Agents Chemother, 2009).

The term IC50 denotes the concentration at which inhibition is half-maximal.

Holding throughout (assay type): functional, organism-based
The test system of assay [1] is Plasmodium falciparum. Put plainly: Antimalarial activity against Plasmodium falciparum IMT K2 assessed as incorporation of [3H]hypoxanthine after 48 hrs by scintillation counter.
Assay [2] deals with Plasmodium falciparum. Put plainly: Antimalarial activity against Plasmodium falciparum IMT 8425 assessed as incorporation of [3H]hypoxanthine after 48 hrs by scintillation counter.
For assay [3], the system named is Plasmodium falciparum. Put plainly: Antimalarial activity against Plasmodium falciparum HB3 assessed as incorporation of [3H]hypoxanthine after 48 hrs by scintillation counter.
Assay [4] relates to Plasmodium falciparum. Put plainly: Antimalarial activity against Plasmodium falciparum IMT 16332 assessed as incorporation of [3H]hypoxanthine after 48 hrs by scintillation counter.
For assay [5], the system named is Plasmodium falciparum. Put plainly: Antimalarial activity against Plasmodium falciparum W2 assessed as incorporation of [3H]hypoxanthine after 48 hrs by scintillation counter.
Assay [6] has as its system Plasmodium falciparum. Put plainly: Antimalarial activity against Plasmodium falciparum IMT K14 assessed as incorporation of [3H]hypoxanthine after 48 hrs by scintillation counter.
For assay [7], the system named is Plasmodium falciparum. Put plainly: Antimalarial activity against Plasmodium falciparum IMT Guy assessed as incorporation of [3H]hypoxanthine after 48 hrs by scintillation counter.
The subject of assay [8] is Plasmodium falciparum. Put plainly: Antimalarial activity against Plasmodium falciparum IMT 9881 assessed as incorporation of [3H]hypoxanthine after 48 hrs by scintillation counter.
In assay [9] the test system is Plasmodium falciparum. Put plainly: Antimalarial activity against Plasmodium falciparum 3D7 assessed as incorporation of [3H]hypoxanthine after 48 hrs by scintillation counter.
In assay [10] the test system is Plasmodium falciparum. Put plainly: Antimalarial activity against Plasmodium falciparum FCM29 assessed as incorporation of [3H]hypoxanthine after 48 hrs by scintillation counter.
In assay [11] the test system is Plasmodium falciparum. Put plainly: Antimalarial activity against Plasmodium falciparum IMT 31 assessed as incorporation of [3H]hypoxanthine after 48 hrs by scintillation counter.
The subject of assay [12] is Plasmodium falciparum. Put plainly: Antimalarial activity against Plasmodium falciparum IMT L1 assessed as incorporation of [3H]hypoxanthine after 48 hrs by scintillation counter.
Assay [13] has as its system Plasmodium falciparum. Put plainly: Antimalarial activity against Plasmodium falciparum IMT K4 assessed as incorporation of [3H]hypoxanthine after 48 hrs by scintillation counter.
The test system of assay [14] is Plasmodium falciparum. Put plainly: Antimalarial activity against Plasmodium falciparum IMT Bres assessed as incorporation of [3H]hypoxanthine after 48 hrs by scintillation counter.
Assay [15] relates to Plasmodium falciparum. Put plainly: Antimalarial activity against Plasmodium falciparum IMT A4 assessed as incorporation of [3H]hypoxanthine after 48 hrs by scintillation counter.
Assay [16] concerns Plasmodium falciparum. Put plainly: Antimalarial activity against Plasmodium falciparum FCR3 assessed as incorporation of [3H]hypoxanthine after 48 hrs by scintillation counter.
Assay [17] relates to Plasmodium falciparum. Put plainly: Antimalarial activity against Plasmodium falciparum IMT Vol assessed as incorporation of [3H]hypoxanthine after 48 hrs by scintillation counter.
The test system of assay [18] is Plasmodium falciparum. Put plainly: Antimalarial activity against Plasmodium falciparum D6 assessed as incorporation of [3H]hypoxanthine after 48 hrs by scintillation counter.
The test system of assay [19] is Plasmodium falciparum. Put plainly: Antimalarial activity against Plasmodium falciparum IMT 10336 assessed as incorporation of [3H]hypoxanthine after 48 hrs by scintillation counter.
Assay [20] has as its system Plasmodium falciparum. Put plainly: Antimalarial activity against Plasmodium falciparum IMT 10500 assessed as incorporation of [3H]hypoxanthine after 48 hrs by scintillation counter.
Assay [21] relates to Plasmodium falciparum. Put plainly: Antimalarial activity against Plasmodium falciparum 106/1 assessed as incorporation of [3H]hypoxanthine after 48 hrs by scintillation counter.
The subject of assay [22] is Plasmodium falciparum. Put plainly: Antimalarial activity against Plasmodium falciparum PA assessed as incorporation of [3H]hypoxanthine after 48 hrs by scintillation counter.

Consider `C=C[C@H]1CN2CC[C@H]1C[C@H]2[C@H](O)c1ccnc2ccc(OC)cc12` [QUININE], for which, in the assay with Plasmodium falciparum [1], the IC50 was found to be 48 nM.
For the compound `OC(c1cc(C(F)(F)F)nc2c(C(F)(F)F)cccc12)C1CCCCN1` (centres undefined) [MEFLOQUINE], the IC50 in the assay on Plasmodium falciparum [2], in the assay on Plasmodium falciparum [3], in the assay on Plasmodium falciparum [4], in the assay with Plasmodium falciparum [5], in the assay on Plasmodium falciparum [6] and in the assay with Plasmodium falciparum [7] was 14 nM in each case. Besides, the IC50 in the assay on Plasmodium falciparum [8], in the assay on Plasmodium falciparum [9], in the assay with Plasmodium falciparum [10], in the assay with Plasmodium falciparum [11], in the assay on Plasmodium falciparum [12] and in the assay with Plasmodium falciparum [13] was 14 nM each time. Also, the IC50 with Plasmodium falciparum [14], in the assay on Plasmodium falciparum [15], in the assay on Plasmodium falciparum [16], in the assay on Plasmodium falciparum [1], with Plasmodium falciparum [17] and in the assay on Plasmodium falciparum [18] was 14 nM each time. The IC50 in the assay on Plasmodium falciparum [19], with Plasmodium falciparum [20], in the assay with Plasmodium falciparum [21] and with Plasmodium falciparum [22] was 14 nM each time.
In the case of `CCNCc1cc(Nc2ccnc3cc(Cl)ccc23)ccc1O` [DESETHYL AMODIAQUINE], the IC50 with Plasmodium falciparum [2], with Plasmodium falciparum [3], in the assay on Plasmodium falciparum [4], with Plasmodium falciparum [5], in the assay on Plasmodium falciparum [6] and in the assay with Plasmodium falciparum [7] was 23 nM throughout. The IC50 with Plasmodium falciparum [8], in the assay on Plasmodium falciparum [10], in the assay with Plasmodium falciparum [11], in the assay on Plasmodium falciparum [12], with Plasmodium falciparum [13] and in the assay with Plasmodium falciparum [14] was 23 nM throughout. For the same compound, the IC50 in the assay on Plasmodium falciparum [15], in the assay with Plasmodium falciparum [16], in the assay on Plasmodium falciparum [1], with Plasmodium falciparum [17], in the assay on Plasmodium falciparum [18] and in the assay with Plasmodium falciparum [19] was 23 nM throughout. The 50% inhibitory concentration (IC50) with Plasmodium falciparum [20], in the assay on Plasmodium falciparum [21] and in the assay with Plasmodium falciparum [22] was 23 nM each time.
As to `CCCCN(CCCC)CC(O)c1cc(Cl)cc2c1-c1ccc(Cl)cc1/C2=C/c1ccc(Cl)cc1` (centres undefined) [LUMEFANTRINE], the IC50 in the assay on Plasmodium falciparum [2], with Plasmodium falciparum [3], in the assay with Plasmodium falciparum [4], in the assay on Plasmodium falciparum [5], with Plasmodium falciparum [6] and with Plasmodium falciparum [7] was 8 nM in each case. Moreover, the half-maximal inhibitory concentration (IC50) in the assay with Plasmodium falciparum [8], in the assay with Plasmodium falciparum [9], with Plasmodium falciparum [10], in the assay with Plasmodium falciparum [11], with Plasmodium falciparum [12] and in the assay with Plasmodium falciparum [13] was 8 nM each time. The IC50 with Plasmodium falciparum [14], in the assay with Plasmodium falciparum [15], in the assay with Plasmodium falciparum [16], in the assay on Plasmodium falciparum [1], in the assay on Plasmodium falciparum [17] and with Plasmodium falciparum [18] was 8 nM each time. The IC50 with Plasmodium falciparum [19], in the assay with Plasmodium falciparum [20], in the assay on Plasmodium falciparum [21] and in the assay with Plasmodium falciparum [22] was 8 nM each time.
For the compound `C[C@H]1[C@@H](O)O[C@@H]2O[C@@]3(C)CC[C@H]4[C@H](C)CC[C@@H]1[C@@]24OO3` [ARTENIMOL], the IC50 with Plasmodium falciparum [2], with Plasmodium falciparum [3], with Plasmodium falciparum [4], in the assay on Plasmodium falciparum [5], in the assay on Plasmodium falciparum [6] and with Plasmodium falciparum [7] was 0.9 nM in each case. The concentration for half-maximal inhibition (IC50) in the assay with Plasmodium falciparum [8], with Plasmodium falciparum [10], in the assay with Plasmodium falciparum [11], with Plasmodium falciparum [12], in the assay with Plasmodium falciparum [13] and in the assay on Plasmodium falciparum [14] was 0.9 nM each time. The IC50 in the assay with Plasmodium falciparum [15], in the assay with Plasmodium falciparum [16], in the assay with Plasmodium falciparum [1], with Plasmodium falciparum [17], in the assay with Plasmodium falciparum [18] and in the assay with Plasmodium falciparum [19] was 0.9 nM each time. The concentration for half-maximal inhibition (IC50) in the assay with Plasmodium falciparum [20], in the assay with Plasmodium falciparum [21] and with Plasmodium falciparum [22] was 0.9 nM in each case.
With `O=C1C(O)=C([C@H]2CC[C@H](c3ccc(Cl)cc3)CC2)C(=O)c2ccccc21` [ATOVAQUONE], the IC50 in the assay with Plasmodium falciparum [2], in the assay with Plasmodium falciparum [3], in the assay on Plasmodium falciparum [4], in the assay on Plasmodium falciparum [5], in the assay with Plasmodium falciparum [6] and in the assay on Plasmodium falciparum [7] was 2.4 nM in each case. For the same compound, the IC50 in the assay on Plasmodium falciparum [8], in the assay with Plasmodium falciparum [9], in the assay with Plasmodium falciparum [10], with Plasmodium falciparum [11], in the assay with Plasmodium falciparum [12] and in the assay on Plasmodium falciparum [13] was 2.4 nM in each case. Further, the IC50 in the assay on Plasmodium falciparum [14], with Plasmodium falciparum [15], with Plasmodium falciparum [16], with Plasmodium falciparum [1], with Plasmodium falciparum [17] and with Plasmodium falciparum [18] was 2.4 nM in each case. For the same compound, the IC50 in the assay with Plasmodium falciparum [19], in the assay with Plasmodium falciparum [20], in the assay with Plasmodium falciparum [21] and in the assay with Plasmodium falciparum [22] was 2.4 nM each time.
